The source of these data is patent US4632922A, “Oxomorpholinyl dimer and rescue of anthracycline and mitomycin C damage” (The United States of America as represented by the …, priority 1985, dated 1986).

Data set [1] can be described thus: Kinetic measurements of TM3 reactivity with anthracycline compounds in methanol solvent. The conditions noted are these: reaction with TM3, 25° C. As for the experimental part:
Kinetic measurements of TM3 reactivity
with anthracycline compounds at 25° C. in methanol solvent.

In a further data set the test system is swine skin. The data set can be described thus: Skin lesions after intradermal DOX in swine. The class given is in vivo, miniature white swine. As for the experimental part: In order to produce anthracycline induced tissue damage, clinical grade doxorubicin (DOX) hydrochloride was obtained as a representative anthracycline chemical from the Drug Synthesis Branch, Developmental Therapeutics Program, National Cancer Institute. Each vial contained 10 mg DOX hydrochloride and 50 mg lactose which was reconstituted with 5.0 ml sterile 0.9% NaCl solution to give a final drug concentration of 2.0 mg/ml. DHM3 solution was prepared by dissolving 10 mg in ice-cold water which had been purged with N2 gas for 5 minutes. Dissolution was facilitated by brief sonication to give a final concentration of 10 mg/ml. The solution was kept cold (≈4° C.) and protected from air and light.
Female weanling miniature white swine weighing approximately 12 kg were obtained from the Veterinary Resources Branch, National Institutes of Health. The development of this strain of swine has been described previously (Sachs, et al., Transplantation 22:559-567, 1976). Each animal was housed in a 6×4 ft metabolic cage and was fed standard NIH show chow, 1.5 lbs twice daily.
DOX HCl (2.0 mg/ml) was administered intradermally (i.d.) with a 25 gauge needle inserted approximately 4 to 5 mm into the skin. Following the injection of 0.5, 0.75 or 1.0 ml (1.0, 1.5, or 2.0 mg, respectively) DOX solution, the syringe was removed from the hub leaving the needle in place. After the indicated time interval, 1.0 ml (10 mg) DHM3 was injected through the same needle and the needle was then removed. Control sites received 1.0 ml sterile water instead of DHM3. The injection sites were along the mid-lateral aspect of each side of the swine and were 4-5 cm apart (6-8 injection sites per side). One animal was used for a dose experiment where DOX, 0.5 ml/site was injected along one side and 1.0 ml/site was injected along the contralateral side. Fifteen minutes later, DHM3 or water was injected into alternating sites as described above. A second animal received DOX, 0.75 ml/site along both sides. DHM3 or water was injected into alternating sites at times varying from 5 to 120 minutes following DOX administration.
All lesions were measured by a single observer with metric calipers three times weekly for two weeks, followed by weekly measurements thereafter. The areas of skin ulceration and induration were estimated by the product of the cross perpendicular diameters. The total toxicity of DOX-induced skin ulceration was determined by calculating the area under the ulceration-time curve (AUC) in mm^2 -days.
In order to assess the extent of tissue injury following intradermal DOX or DHM3, incisional biopsies were performed on representative lesions 6 and 20 days following drug injection. These samples were placed in 10% buffered formalin and processed for examination by standard light microscopy (Pathco Inc., Potomac, MD.).

In another data set the test system is DOX-induced injury. The conditions noted are these: cited from earlier work; for reduction of size of ulceration: animal models.
A short description of data set [2]: Solubility of 7-deoxydaunorubicinone in the aqueous reaction medium. The conditions noted are these: water, pH8. In kind it is physicochemical.
Data set [3] in a line: Kinetics of reaction of DHM3 with daunorubicin in water solvent. The conditions noted are these: over the first 85 sec, water, 10° C., ten-fold excess DHM3. As for the experimental part: A test similar to that described for the same reaction in methanol solvent (vide supra) was run. Oxomorpholinyl dimer DHM3 (1.38 mg, 4.37×10^-3 mmol) was dissolved in 0.5 ml of oxygen-free methanol and quickly transferred without delay into one compartment of the cell. The solvent was promptly removed under vacuum. Daunorubicin hydrochloride ([…]) was dissolved in 100 ml of an aqueous solution of Tris (24.2 mg) and Tris hydrochloride (31.6 mg) and 2.6 ml of this solution (4.18×10^-4 mmol of 6) was introduced into the other compartment of the cell. The sample was freeze-thaw degassed over three cycles as described above, sealed, and placed in a thermostatted cell holder at 10.0±0.1° C. for about 20 min prior to mixing. Full spectra between 320 and 800 nm were recorded every 10 sec for the first 125 sec, and then every 20 sec. From the absorbance change at 620 nm over the first 85 sec (50% reaction of daunorubicin), a non-linear least-squares treatment gave a first order rate constant for bond homolysis of DHM3 (k1) equal to 6×10^-4 sec^-1 and a first order rate constant for destruction of 7 (k2) equal to 2×10^-2 sec^-1. Treatment of the data obtained in the 164-225 sec interval gave k2 =2.8×10^-2 sec^-1.
Thus, when a ten-fold excess of DHM3 is reacted with an oxygen-free 2×10^-4 M solution of 6 in buffered water (pH8) at 10° C., the absorbance of the solution at 618-620 nm, due to the tautomer 7, reaches its maximum after 125 sec and then decreases quickly, with an 80% decrease in 100 sec. Here again the formation and destruction of 7, as calculated from the data obtained in the first 85 sec of reaction, follows consecutive first order kinetics, first order in DHM3 and 7, with k1 =6×10^-4 sec^-1, k2 =2×10^-2 sec^-1 and ε7 =9600. Calculation of k2 from the absorbance data taken after 165 sec of reaction time, when only first order destruction of 7 is observed, gives a value of 2.8×10^-2 sec^-1.

For the compound `CC(=O)C1(O)Cc2c(O)c3c(c(O)c2C(OC2CC(N)C(O)C(C)O2)C1)C(=O)c1ccccc1C3=O` (stereo not shown) [4-DEMETHOXYDAUNORUBICIN, 4-demethoxydaunorubicin], in data set [1], the “RATE CONSTANT k2” value came to 0.009 s⁻¹.

Consider `CC[C@@]1(O)C[C@H](O[C@H]2C[C@H](N(C)C)[C@H](O[C@H]3C[C@H](O)[C@H](O[C@H]4CCC(=O)[C@H](C)O4)[C@H](C)O3)[C@H](C)O2)c2c(cc3c(c2O)C(=O)c2c(O)cccc2C3=O)[C@H]1C(=O)OC` [ACLARUBICIN], for which the “RATE CONSTANT k2” value in data set [1] is 0.0009 s⁻¹.

In the case of `COc1cccc2c1C(=O)c1c(O)c3c(c(O)c1C2=O)C[C@@](O)(C(=O)CO)C[C@@H]3O[C@H]1C[C@H](N)[C@H](O)[C@H](C)O1` [DOX, doxorubicin], the “dose dependence of skin ulceration size” value in the data set with swine skin (DOX 0.5 to 1.0 ml (2.0 mg/ml) i.d.) is on record as “linearly dependent on the dose”. Further, in the data set on swine skin (DOX i.d.), the “start of ulcer formation following DOX” value is 7 to 8 days, the “time to complete healing of ulcer” value is recorded as no more than 7 weeks and the “time to maximal ulcer size following DOX” value worked out at 3 weeks. The “microscopic appearance of lesions” value in the data set on swine skin (DOX i.d., biopsy) was “extensive coagulation-type necrosis of epidermis, dermis, and subcutaneous tissue, including muscle”. In addition, the “ulcer following DOX, compared with present results” value in the data set with DOX-induced injury (2 mg/site i.d., swine, Okano et al. 1983) is “smaller and more variable ulcer”. For the same compound, the “RATE CONSTANT k2” value in data set [1] worked out at 0.011 s⁻¹.

As to `CO[C@@H]1C[C@](C)(O)Cc2cc3c(c(O)c21)C(=O)c1c(O)cc2c(c1C3=O)O[C@@H]1O[C@@]2(C)[C@H](O)[C@@H](N(C)C)[C@@H]1O` [MENOGARIL], the “RATE CONSTANT k2” value in data set [1] came out at 0.0025 s⁻¹.

Take `Cc1c(C)c2c(c(C)c1O)CCC(C)(CCCC(C)CCCC(C)CCCC(C)C)O2` (stereo not drawn) [alpha-tocopherol]: the “reduction of size of ulceration” value in the data set on DOX-induced injury is listed as “purported to reduce the size of ulceration in some animal models but not in all”.

With `COc1cccc2c1C(=O)c1c(O)c3c(c(O)c1C2=O)CC(O)(C(C)=O)CC3` (stereo not shown) [compound 8, 7-deoxydaunorubicinone], the solubility result in data set [2] is recorded as “sparingly soluble”.

`COc1cccc2c1C(=O)c1c(O)c3c(c(O)c1C2=O)C[C@@](O)(C(C)=O)C[C@@H]3O[C@H]1C[C@H](N)[C@H](O)[C@H](C)O1` [daunorubicin, reference compound] had a reaction of daunorubicin in data set [3] of 50%. Further, the “RATE CONSTANT k2” value in data set [1] was 0.013 s⁻¹.

`C[S+](C)[O-]` [dimethyl sulfoxide]: in the data set with DOX-induced injury, the “reduction of size of ulceration” value is listed as “purported to reduce the size of ulceration in some animal models but not in all”. Besides, the “severity of DOX-induced injury” value in the data set with DOX-induced injury (swine model, Okano et al. 1983) is “appeared to ameliorate the severity of injury”.
